Key:
[1] = Estimated saturation in 100% DMSO; type: physicochemical
Method: General Procedure. For Examples 2 through 7, all test compounds of interest were initially dissolved in 100% DMSO. Estimated saturation occurred at approximately 4 mM for ellagic acid dihydrate. The saturated solution was diluted 1:10 in 1× PBS; creating a 100× stock solution of 400 μM ellagic acid dihydrate. Working concentrations (1×), 4 μM, and more dilute concentrations of ellagic acid dihydrate were created by 1:10 dilutions into 0.1% DMSO. The resulting six dilutions ranged from 4 μM to 0.04 nM. Dose curves were analyzed using either Harmony software on the Operetta (Perkin Elmer) or Excel (Microsoft) for flow cytometry, which was performed on a BD Accuri (BD Biosciences).

[2] = tested on: p44/42 MAPK / Phos p44/42 MAPK in C2C12 cells; test: p44/42 MAPK:phos p44/42 MAPK ratio by immunocytochemistry, high-content imaging; type: cell-based, mouse; conditions: C2C12, treated 30 minutes, 400 nM, 0.04 nM, FIG. 9
Method: (§1) Stimulation of AKT pathways and MAPK pathways in ellagic acid dihydrate, metformin, and insulin treated cell cultures was performed. Insulin stimulates glucose uptake into cells by increasing GLUT4 activation, and AKT, specifically phos-AKT, signaling alters GLUT4 translocation. […] Cellular assays were performed using mouse myoblast C2C12 cells. Relative protein levels of AKT:phos AKT and p44/42 MAPK:phos p44/42 MAPK were determined.
Serum starved cells (1 hr) were treated for 30 minutes with each of the tested compounds. Ratios of phosphorylated to non-phosphorylated proteins were determined using immunocytochemistry labeling (anti-AKT, anti-Phos AKT; or anti-p44/42 MAPK, anti-Phos p44/42 MAPK) on a high-content imaging system (Operetta, Perkin Elmer) using the fluorescent signal of anti-rabbit Alexa 647. Increased phosphorylation is indicated as decrease in signal of AKT:Phos AKT ratio (log2 scale) and p44/42 MAPK:Phos p44/42 MAPK ratio (log2 scale) relative to vehicle treated cells.

[3] = tested on: AKT / Phos AKT in C2C12 cells; test: AKT:phos AKT ratio by immunocytochemistry, high-content imaging; type: cell-based, mouse; conditions: C2C12, serum starved 1 hr, treated 30 minutes, 4 nM-4 μM, FIG. 8
Method: as §1, with “[…] Serum starved cells (1 hr) were treated for 30 minutes with each” for “Relative protein levels”, “the tested compounds.” for “AKT:phos AKT and p44/42 MAPK:phos p44/42 MAPK were determined.”

[4] = tested on: mouse embryonic fibroblasts (MEFs); test: Cytotoxicity: cell membrane integrity by propidium iodide (PI) labeling; type: cell-based; conditions: 48 hr exposure
Method: The cytotoxicity of ellagic acid dihydrate in in vitro cell culture was evaluated. Cellular assays were performed using mouse embryonic fibroblasts (MEFs). Cells were unexposed (No Treatment) or exposed to varying concentrations of ellagic acid dihydrate (4 μM-0.04 nM) or vehicle (0.1% DMSO) for 48 hrs. All assays were run in triplicate.
Loss of cellular membrane integrity is an indication of cell death. Cell membrane integrity/cell toxicity was determined by adding propidium iodide (PI) to suspended cells prior to flow cytometry. PI is a red-fluorescent DNA stain that is excluded by live-healthy cells but will enter dead cells in a population. The presence of PI in 500-1000 cells per treatment group was determined by flow cytometry (Accuri C6, BD Biosciences). Cell with disrupted membranes, associated with cell death, are expected to be positively labeled with PI.

[5] = tested on: GLUT4-GFP in mouse myoblast C2C12 cells; test: Localization of glucose transporter GLUT4-GFP, time-lapse confocal microscopy; type: cell-based; conditions: C2C12, 4000 nM
Method: Induction of glucose transporter, GLUT-4, in ellagic acid dihydrate treated cell cultures was studied. Cellular assays were performed using mouse myoblast C2C12 cells. The cells were infected with a fusion glucose transporter 4 green fluorescent protein (GLUT4-GFP). This protein allows the visualization of GLUT4 by imaging the GFP under fluorescent time-lapse microscopy. Frames were compiled to produce time-lapse images of cellular changes with no treatment or treatment with insulin. The localization of glucose transporter (GLUT4-GFP) was performed in final incubation volume of 505 μL, consisting of 500 μL of Hank's Buffer (Invitrogen) and 5 μl of tested compounds. Insulin was used as positive controls and vehicle (0.1% DMSO) as the negative control. All test compounds were prepared in 10% DMSO and diluted 1:100 for a final concentration of 0.1% DMSO (vehicle). The cells were rinsed in Hank's Buffer thrice and then incubated in Hank's Buffer at 37° C. for one hour. The test compounds were added (ellagic acid dihydrate, insulin, or vehicle) and the cells were imaged using laser-confocal microscopy (Leica TCS SP5 X) with FITC fluorescent filters to determine changes in GLUT4-GFP localization. Time-lapse images (TIF) were collected and post-processed using Image-J (NIH) for video construction.

O.O.O=c1oc2c(O)c(O)cc3c(=O)oc4c(O)c(O)cc1c4c23 [ellagic acid dihydrate]
Estimated saturation [1]: approximately 4 mM
p44/42 MAPK:Phos p44/42 MAPK ratio relative to vehicle treated cells [2]: increase in p44/42 MAPK
AKT:Phos AKT ratio (log2 scale) relative to vehicle treated cells [3]: increase in AKT relative to Phos-AKT signal
Cell membrane integrity relative to the vehicle or untreated cells ([4]; 400 nM-0.4 nM, not statistically significant (P>0.05)): increased
Cell membrane integrity (% cells negative for PI) ([4]; 4000 nM): 95.40%
GLUT4-GFP around the cell nucleus [5]: decrease in nuclear GLUT4-GFP
ruffling of filopodia at the surface of the cell [5]: rapid ruffling of filopodia
time course of GLUT4-GFP and membrane changes compared with insulin [5]: slightly delayed

— patent US20170368018A1, “USE OF ELLAGIC ACID DIHYDRATE IN PHARMACEUTICAL FORMULATIONS TO REGULATE BLOOD GLUCOSE LEVELS” (HALO LIFE SCIENCE, LLC, priority 2014, published 2017)
